Assay [1] has as its system K562. Nature of the assay: Evaluated for erythroid induction of benzidine-positive K562 cells at concentration 3 mM. Type of assay: functional, Homo sapiens.
Assay [2] relates to K562. The assay is described as follows: Inhibition of cell growth against human myeloid leukemia K562(S) cells. The format is functional, cell-based.
Assay [3] deals with K562. Nature of the assay: Compound was evaluated for erythroid induction of benzidine-positive K562 cells at concentration 4 mM. Type of assay: functional, Homo sapiens.
Assay [4] has as its system K562. The assay is described as follows: Effect of compound on erythroid differentiation of K562 cells was determined after a period of 9 days at concentration 4 mM. Type of assay: functional, Homo sapiens.
Assay [5] deals with K562. Nature of the assay: Effect of compound on erythroid differentiation of K562 cells was determined after a period of 3 days at concentration 4 mM. Type of assay: functional, Homo sapiens.
Assay [6] deals with K562. Nature of the assay: Compound (2 mM) was evaluated for maximum level of percentage of benzidine-positive (hemoglobin-containing) K562 cells in the presence of ara-C (25 nM). The format is functional, Homo sapiens.
The subject of assay [7] is K562. Nature of the assay: Compound (2 mM) was evaluated for maximum level of percentage of benzidine-positive (hemoglobin-containing) K562 cells in the presence of retinoic acid (5 uM). Type of assay: functional, Homo sapiens.
Assay [8] concerns K562. The assay is described as follows: Compound (2 mM) was evaluated for maximum level of percentage of benzidine-positive (hemoglobin-containing) K562 cells in the presence of mithramycin (5 nM). The format is functional, Homo sapiens.
The subject of assay [9] is K562. The assay is described as follows: Effect of compound on erythroid differentiation of K562 cells was determined after a period of 5 days at concentration 4 mM. The format is functional, Homo sapiens.
Assay [10] relates to K562. Nature of the assay: Effect of compound on erythroid differentiation of K562 cells was determined after a period of 7 days at concentration 4 mM. The format is functional, Homo sapiens.
The subject of assay [11] is K562. The assay is described as follows: Compound was evaluated for erythroid induction of benzidine-positive K562 cells at concentration 5 mM after 9 day induction period. The format is functional, Homo sapiens.
Assay [12] relates to K562. Nature of the assay: Compound was evaluated for erythroid induction of benzidine-positive K562 cells at concentration 4 mM after 9 day induction period. The format is functional, Homo sapiens.
In assay [13] the test system is K562. The assay is described as follows: Compound was evaluated for erythroid induction of benzidine-positive K562 cells at concentration 3 mM after 9 day induction period. The format is functional, Homo sapiens.
In assay [14] the test system is K562. Nature of the assay: The compound was evaluated for inhibition of cell growth against human myeloid leukemia K562(S) cells. The format is functional, cell-based.
The test system of assay [15] is K562. The assay is described as follows: Effect of compound on erythroid differentiation of K562 cells was determined after a period of 9 days at concentration 20 nM. The format is functional, Homo sapiens.
The subject of assay [16] is K562. The assay is described as follows: Effect of compound on erythroid differentiation of K562 cells was determined after a period of 5 days at concentration 20 nM. The format is functional, Homo sapiens.
Assay [17] deals with K562. The assay is described as follows: Effect of compound on erythroid differentiation of K562 cells was determined after a period of 3 days at concentration 20 nM. The format is functional, Homo sapiens.
Assay [18] relates to K562. Nature of the assay: Effect of compound on erythroid differentiation of K562 cells was determined after a period of 7 days at concentration 20 nM. The format is functional, Homo sapiens.
The subject of assay [19] is K562. Nature of the assay: Evaluated for erythroid induction of benzidine-positive K562 cells at concentration 2 mM after 9 day induction period. Type of assay: functional, Homo sapiens.
Assay [20] has as its system K562. Nature of the assay: Compound was evaluated for erythroid induction of benzidine-positive K562 cells at concentration 1 mM after 9 day induction period. The format is functional, Homo sapiens.
In assay [21] the test system is K562. Nature of the assay: In vitro inhibition of cell growth against human myeloid leukemia K562(S) cells. Type of assay: functional, cell-based.
For assay [22], the system named is K562. Nature of the assay: Maximum level of percentage of benzidine-positive (hemoglobin-containing) K562 cells reached with in 9 days at 3 mM concentration. Type of assay: functional, Homo sapiens.
Assay [23] has as its system K562. Nature of the assay: Maximum level of percentage of benzidine-positive (hemoglobin-containing) K562 cells reached with in 9 days at 4 mM concentration. The format is functional, Homo sapiens.
The subject of assay [24] is K562. Nature of the assay: Compound was evaluated for erythroid induction of benzidine-positive K562 cells at concentration 5 mM. The format is functional, Homo sapiens.
Assay [25] relates to K562. Nature of the assay: Compound (2 mM) was evaluated for maximum level of percentage of benzidine-positive (hemoglobin-containing) K562 cells in the presence of retinoic acid (5 µM).
Assay [26] relates to K562. The assay is described as follows: Effect of compound on erythroid differentiation of K562 cells was determined after a period of 5 days at concentration 500 nM. The format is functional, Homo sapiens.
In assay [27] the test system is K562. The assay is described as follows: Effect of compound on erythroid differentiation of K562 cells was determined after a period of 7 days at concentration 500 nM. Type of assay: functional, Homo sapiens.
The subject of assay [28] is K562. The assay is described as follows: Effect of compound on erythroid differentiation of K562 cells was determined after a period of 9 days at concentration 500 nM. Type of assay: functional, Homo sapiens.
Assay [29] relates to K562. The assay is described as follows: Effect of compound on erythroid differentiation of K562 cells was determined after a period of 3 days at concentration 500 nM. The format is functional, Homo sapiens.

pIC50: −log10 of the molar value.

The term pIC50 denotes −log10 of the IC50, conventionally taken in molar units. A high value points to a small IC50. Compound `CCCC(=O)O` [BUTYRIC ACID] yielded an Erythroid induction in assay [1] of 35%. This compound also gave a pIC50 in assay [2] of 2.62.
In the case of `CC1(C)OC2OC(C(O)CO)C(OC(=O)C(C)(C)C)C2O1` (stereo not drawn), the Erythroid induction came to 50.2% in [3]; 59% in [4]; 51.7% in [1]; 22% in assay [5]; 90% in [6]; 67% in assay [7]. Also, the Erythroid induction in assay [8] turned out to be 34%; in [9], 25%; in [10], 50.7%. The pIC50 in [2] was 2.82.
With `CC1(C)OC2OC(C(O)CO)C(OC(=O)C3CCCC3)C2O1` (stereo not drawn), the Erythroid induction in assay [11] came out at 8%; in assay [12] it was 16.8%; in assay [13], 7%. Besides, the pIC50 in assay [2] was 2.60.
Turning to `CO[C@H](C(=O)[C@@H](O)[C@@H](C)O)[C@@H]1Cc2cc3cc(O[C@H]4C[C@@H](O[C@@H]5C[C@@H](O)[C@H](O)[C@@H](C)O5)[C@H](O)[C@@H](C)O4)c(C)c(O)c3c(O)c2C(=O)[C@H]1O[C@H]1C[C@@H](O[C@@H]2C[C@@H](O)[C@@H](O[C@@H]3C[C@](C)(O)[C@H](O)[C@@H](C)O3)[C@@H](C)O2)[C@H](O)[C@@H](C)O1` [PLICAMYCIN], in assay [14], the pIC50 is 8.00. Besides, the Erythroid induction in assay [1] is reported as 81%; in assay [15], 80%; in assay [16], 55%; in assay [17], 15%; in assay [18], 75%.
Turning to `CC(C)CC(=O)OC1C(C(O)CO)OC2OC(C)(C)OC21` (stereo not drawn), the pIC50 in [2] was 3.00. Further, the Erythroid induction in assay [19] came to 12%.
The compound `CCCCC(=O)OC1C(C(O)CO)OC2OC(C)(C)OC21` (stereo not drawn) showed a pIC50 in [2] of 2.70. The values for the Erythroid induction in assay [19], in assay [12] and in assay [13] were 24%, 25% and 28%, respectively.
As to `CC(C)(C)C(=O)O` [PIVALATE], the Erythroid induction in [4] worked out at 6%; in assay [1], 12%; in [5], 4%; in assay [9] it was 9%; in assay [10], 11%. The compound further gave a pIC50 in [2] of 2.35.
Compound `CCCCCC(=O)OC1C(C(O)CO)OC2OC(C)(C)OC21` (stereo not drawn) had a pIC50 in assay [2] of 2.92. In addition, the Erythroid induction in assay [19] amounted to 21%; in assay [20], 10.3%.
`CCCC(=O)OC1C(C(O)CO)OC2OC(C)(C)OC21` (stereo not drawn) gave a negative logarithm of the IC50 (pIC50) in [2] of 3.10. The compound further registered an Erythroid induction in assay [19] of 25.4%.
`CC1(C)OCC(C2OC3OC(C)(C)OC3C2O)O1` (stereo not drawn) showed a pIC50 in assay [21] of 2.55. Also, the Erythroid induction came to 26% in assay [22] and 18% in [23].
For the compound `CCC(=O)O` [PROPIONIC ACID], the pIC50 in [2] is 2.40. For the same compound, in [12], the Erythroid induction came to 10%.
In turn, `CC(C)(C)CC(=O)OC1C(C(O)CO)OC2OC(C)(C)OC21` (stereo not drawn) had a pIC50 in assay [2] of 2.92. Also, in assay [19], the Erythroid induction was 20%.
`CC(C)C(=O)OC1C(C(O)CO)OC2OC(C)(C)OC21` (stereo not drawn): the Erythroid induction in assay [3] worked out at 54.2%; in [4], 50%; in assay [24], 59%; in assay [1] it was 43%; in [5], 20%; in [6], 78%. The Erythroid induction was 55.8% in assay [25], 35% in assay [9] and 56.8% in [10]. For the same compound, in assay [2], the pIC50 is 2.60.
As to `CCC(=O)OC1C(C(O)CO)OC2OC(C)(C)OC21` (stereo not drawn), the pIC50 in assay [2] was 2.62. For the same compound, the results for the Erythroid induction in assay [19], in [12] and in assay [13] were 21%, 25% and 19.6%, respectively.
For the compound `CC(C)C(=O)O`, the Erythroid induction came out at 8% in assay [4]; 14% in assay [1]; 12% in [5]; 14% in assay [9]; 12% in assay [10]. The compound further gave a pIC50 in assay [2] of 2.32.
In the case of `Nc1ccn([C@@H]2O[C@H](CO)[C@@H](O)[C@@H]2O)c(=O)n1` [CYTARABINE], the Erythroid induction stood at 61.5% in [26]; 95% in [1]; 84.5% in [27]; 93.2% in [28]; 45% in assay [29]. The same compound showed a pIC50 in assay [2] of 6.30.
Regarding `CC1(C)OC2OC(C(O)CO)C(OC(=O)CC(c3ccccc3)c3ccccc3)C2O1` (stereo not drawn), the negative logarithm of the IC50 (pIC50) in assay [2] is 3.30. This compound had an Erythroid induction in assay [20] of 14%.
In assay [2], `CC(CC(=O)OC1C(C(O)CO)OC2OC(C)(C)OC21)c1ccccc1` (stereo not drawn) showed a pIC50 of 3.30. Moreover, in [20], the Erythroid induction came to 15%.
On to `CC(=O)OC1C(C(O)CO)OC2OC(C)(C)OC21` (stereo not drawn), for which, in assay [2], the pIC50 is 2.42. The Erythroid induction in assay [23] was found to be 27%.

Source of the values: ChEMBL document CHEMBL1131873, “Induction of erythroid differentiation of human K562 cells by 3-O-acyl-1,2-O-isopropylidene-D-glucofuranose derivatives” (Bioorg Med Chem Lett, 1999).
